Measurements from patent US8211929B2, “Pyrimidine derivatives as kinase modulators and method of use” (Exelixis, Inc., priority 2004, dated 2012).
pIC50: −log10 of the molar value. Read-outs that look alike come from different tables or passages of the source.

Key:
IGF 3P = target: T1, IGF 3P (Homo sapiens, UniProt P08069); assay: IGF1R kinase assay (LCCA), IGF 3P; type: biochemical
T1 construct: human IGF1R kinase domain residues M954-C1367; made in house; host or cells: baculovirus expression (insect cells)
Outline: (§1)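 Baculovirus-expressed human IGF1R kinase domain (M954-C1367), 4 nM, with 3 μM ATP and 4 μM poly EY in Tris-HCl pH 7.5 buffer containing MgCl2 and MnCl2, 2 h at ambient temperature. Remaining ATP read by luciferase chemiluminescence; IC50 from 10-point dose-response fitted to a four-parameter equation.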

[1] = target: T2, (Homo sapiens, UniProt P08069); assay: IGF1R kinase assay (LCCA), IGF 0P; type: biochemical
T2 construct: human IGF1R kinase domain residues M954-C1367; made in house; host or cells: baculovirus expression (insect cells)
Outline: as §1

T2 sequence (P08069 954-1367): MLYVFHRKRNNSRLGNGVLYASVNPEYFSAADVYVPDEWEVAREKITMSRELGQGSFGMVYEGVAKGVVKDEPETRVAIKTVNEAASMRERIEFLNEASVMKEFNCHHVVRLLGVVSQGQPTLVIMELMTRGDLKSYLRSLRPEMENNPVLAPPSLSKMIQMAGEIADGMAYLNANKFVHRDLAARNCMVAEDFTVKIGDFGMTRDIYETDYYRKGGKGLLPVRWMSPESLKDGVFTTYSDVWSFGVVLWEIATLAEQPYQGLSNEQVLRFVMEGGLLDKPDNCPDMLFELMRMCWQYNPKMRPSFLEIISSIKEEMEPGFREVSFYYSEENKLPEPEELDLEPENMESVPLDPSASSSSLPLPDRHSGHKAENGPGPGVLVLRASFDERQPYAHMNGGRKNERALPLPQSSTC
T1 sequence (P08069 954-1367): as above

| SMILES | pIC50 (IGF 3P; IGF1R kinase LCCA assay) | pIC50 ([1]; IGF1R kinase LCCA assay) | further results |
| --- | --- | --- | --- |
| Cc1cc(Nc2cc(C3CC3)[nH]n2)nc(NCc2cc(-c3ccc(Cl)cc3)no2)n1 [Example 178] | 5.30 to 6.30 | 6.30 to 7.30 | – |
| Cc1cc(Nc2nc(NCc3cc(-c4ccccc4)no3)ncc2Br)no1 [Example 296] | < 5.30 | < 5.30 | – |
| Cc1cc(Nc2cc(N3CCOCC3)nc(NCc3cc(-c4ccccc4)no3)n2)[nH]n1 [Example 617, N^4-(3-methyl-1H-pyrazol-5-yl)-6-morpholin-4-yl-N^2-[(3-phenylisoxazol-5-yl)methyl]pyrimidine-2,4-diamine] | – | – | pIC50 (IGF 3P): > 7.30; pIC50 [1]: 6.30 to 7.30 |
| Cc1cc(CNc2nc(Nc3cc(C4CC4)[nH]n3)cc(OCCN3CCCC3)n2)on1 [Example 647, N^4-(5-cyclopropyl-1H-pyrazol-3-yl)-N^2[(3-methylisoxazol-5-yl)methyl]-6-[(2-pyrrolidin-1-ylethyl)oxy]pyrimidine-2,4-diamine] | – | – | pIC50 (IGF 3P): > 7.30; pIC50 [1]: 6.30 to 7.30 |
| CC(=O)NCC1CC(n2cc(-c3cccc(OCc4ccccc4)c3)c3c(NC(C)=O)ncnc32)C1 (centres unmarked) [Example 346] | 5.30 to 6.30 | < 5.30 | – |
| O=C(c1cc(Nc2cc(C3CC3)[nH]n2)nc(NCc2cc(-c3ccccc3)no2)n1)N1CCOCC1 [Example 512] | 6.30 to 7.30 | 6.30 to 7.30 | – |
| CC(C)c1cc(CNc2nc(Nc3cc(C4CC4)[nH]n3)cc(N3CCN[C@H](C)C3)n2)on1 [Example 557] | – | – | pIC50 (IGF 3P; IGF1R kinase LCCA assay, IGF 3P): > 7.30; pIC50 ([1]; IGF1R kinase LCCA assay, IGF 0P): 6.30 to 7.30 |
| CN1CCN(C(=O)c2cc(Nc3cc(C4CC4)[nH]n3)nc(NCc3cc(-c4ccccc4)no3)n2)CC1 [Example 522] | > 7.30 | 6.30 to 7.30 | – |
| Brc1cnc(Nc2ccc(OCc3ccccc3)cc2)nc1Nc1cc(C2CC2)n[nH]1 [Example 320] | < 5.30 | < 5.30 | – |
| Brc1cnc(Nc2ccc3c(c2)CCC3)nc1Nc1cc(C2CC2)[nH]n1 [Example 180] | 5.30 to 6.30 | 5.30 to 6.30 | – |
| Brc1cnc(Nc2cc(-c3ccccc3)n[nH]2)nc1Nc1cc(-c2ccccc2)n[nH]1 [Example 319] | < 5.30 | < 5.30 | – |
| O=C(NCCN1CCOCC1)c1cc(Nc2cc(C3CC3)[nH]n2)nc(NCc2cc(-c3ccccc3)no2)n1 [Example 533] | 6.30 to 7.30 | 6.30 to 7.30 | – |
| Brc1cnc(Nc2cccc(OCc3ccccc3)c2)nc1Nc1cc(C2CC2)n[nH]1 [Example 269] | < 5.30 | < 5.30 | – |
| Nc1ncnc2c1c(-c1cccc(Oc3ccccc3)c1)cn2C1CCCC1 [Example 354] | < 5.30 | < 5.30 | – |
| CN1CCN(c2ncc(Br)c(Nc3cc(C4CC4)[nH]n3)n2)CC1 [Example 249] | 5.30 to 6.30 | < 5.30 | – |
| Cc1cc(CNc2nc(Nc3cc(C4CC4)[nH]n3)cc(N3C[C@H]4C[C@@H]3CN4Cc3ccccc3)n2)on1 [Example 635, N^4-(5-cyclopropyl-1H-pyrazol-3-yl)-N^2-[(3-methylisoxazol-5-yl)methyl]-6-[(1R,4R)-5-(phenylmethyl)-2,5-diazabicyclo[2.2.1]hept-2-yl]pyrimidine-2,4-diamine] | – | – | pIC50 (IGF 3P): > 7.30; pIC50 [1]: 6.30 to 7.30 |
| Cc1cc(Nc2cc(C)nc(NCc3cc(-c4ccccc4)no3)n2)[nH]n1 [Example 528] | 6.30 to 7.30 | 6.30 to 7.30 | – |
| c1ccc(-c2cc(CNc3nc(Nc4cc(C5CC5)[nH]n4)cc(N4CCOCC4)n3)on2)nc1 [Example 612, N^4-(5-cyclopropyl-1H-pyrazol-3-yl)-6-morpholin-4-yl-N^2-[(3-pyridin-2-ylisoxazol-5-yl)methyl]pyrimidine-2,4-diamine] | – | – | pIC50 (IGF 3P): > 7.30; pIC50 [1]: 6.30 to 7.30 |
| CN1CCN(C(=O)c2ccc(Nc3ncc(Br)c(Nc4cc(C5CC5)n[nH]4)n3)cc2)CC1 [Example 124] | 6.30 to 7.30 | 5.30 to 6.30 | – |

| SMILES | pIC50 (IGF 3P; IGF1R kinase LCCA assay) | pIC50 ([1]; IGF1R kinase LCCA assay) | further results |
| --- | --- | --- | --- |
| CN(C)CCOc1cc(Nc2cc(C3CC3)[nH]n2)nc(NCc2cc(-c3ccccn3)no2)n1 [Example 641, N^4-(5-cyclopropyl-1H-pyrazol-3-yl)-6-{[2-(dimethylamino)ethyl]oxy}-N^2-[(3-pyridin-2-ylisoxazol-5-yl)methyl]pyrimidine-2,4-diamine] | – | – | pIC50 (IGF 3P): > 7.30; pIC50 [1]: 6.30 to 7.30 |
| Cc1cc(CNc2nc(Nc3cc(C4CC4)n[nH]3)cc(N3CCOCC3)n2)on1 [Example 601, N^4-(3-cyclopropyl-1H-pyrazol-5-yl)-N^2-[(3-methylisoxazol-5-yl)methyl]-6-morpholin-4-ylpyrimidine-2,4-diamine] | – | – | pIC50 (IGF 3P): > 7.30; pIC50 [1]: 6.30 to 7.30 |
| CCN(CC)CCNC(=O)c1ccc(Nc2ncc(C)c(Nc3cc(C4CC4)n[nH]3)n2)cc1 [Example 167] | 5.30 to 6.30 | 5.30 to 6.30 | – |
| COC(=O)C1CCc2cc(Nc3nc(C)cc(Nc4cc(C5CC5)n[nH]4)n3)ccc2N1 (centres unmarked) [Example 537] | 5.30 to 6.30 | 5.30 to 6.30 | – |
| Cc1cc(Nc2cc(C3CC3)n[nH]2)nc(Nc2cc(C(F)(F)F)cc(C(F)(F)F)c2)n1 [Example 300] | < 5.30 | < 5.30 | – |
| COc1ccccc1CNc1nc(C)cc(Nc2cc(C3CC3)[nH]n2)n1 [Example 207] | 5.30 to 6.30 | 5.30 to 6.30 | – |
| Cc1cc(Nc2cc(C3CC3)[nH]n2)nc(NCc2ccc(-c3ccc(Cl)cc3)s2)n1 [Example 562] | 5.30 to 6.30 | 5.30 to 6.30 | – |
| Cc1cc(Nc2cc(C3CC3)[nH]n2)nc(NCc2cc(-c3cnccn3)no2)n1 [Example 623, N^4-(5-cyclopropyl-1H-pyrazol-3-yl)-6-methyl-N^2-[(3-pyrazin-2-ylisoxazol-5-yl)methyl]pyrimidine-2,4-diamine] | – | – | pIC50 (IGF 3P): > 7.30; pIC50 [1]: 6.30 to 7.30 |
| Cc1ccc(CNc2ncc(Br)c(Nc3cc(C4CC4)n[nH]3)n2)o1 [Example 142] | 6.30 to 7.30 | 5.30 to 6.30 | – |
| Brc1cnc(NCCc2cccs2)nc1Nc1cc(C2CC2)n[nH]1 [Example 170] | 5.30 to 6.30 | 5.30 to 6.30 | – |
| COc1cc(CNc2ncc(Br)c(Nc3cc(C4CC4)[nH]n3)n2)cc(OC)c1 [Example 187] | 5.30 to 6.30 | 5.30 to 6.30 | – |
| CC(C)(C)OC(=O)N1CCC(Nc2ncc(Br)c(Nc3cc(C4CC4)[nH]n3)n2)CC1 [Example 326] | < 5.30 | < 5.30 | – |
| Nc1ncnc2c1c(-c1cccc(OCc3ccccc3)c1)cn2CC1CC2CNCC2C1 (centres unmarked) [Example 358] | < 5.30 | < 5.30 | – |
| CN1CCN(c2cc(Nc3cc(C4CC4)n[nH]3)nc(NCc3cc(-c4ccnc(N)n4)no3)n2)CC1 [Example 660, N^2-{[3-(2-aminopyrimidin-4-yl)isoxazol-5-yl]methyl}-N^4-(3-cyclopropyl-1H-pyrazol-5-yl)-6-(4-methylpiperazin-1-yl)pyrimidine-2,4-diamine] | – | – | pIC50 (IGF 3P): 6.30 to 7.30; pIC50 [1]: 6.30 to 7.30 |
| CC(C)c1cc(Nc2cc(OCCN3CCCCC3)nc(NCc3cc(C(C)C)no3)n2)[nH]n1 [Example 595, N^2-{[3-(1-methylethyl)isoxazol-5-yl]methyl}-N^4-[3-(1-methylethyl)-1H-pyrazol-5-yl]-6-[(2-piperidin-1-ylethyl)oxy]pyrimidine-2,4-diamine] | – | – | pIC50 (IGF 3P): > 7.30; pIC50 [1]: 6.30 to 7.30 |
| CC(=O)Nc1ccc(Cl)c(Nc2ncc(Br)c(Nc3cc(C)on3)n2)c1 [Example 57] | > 7.30 | 5.30 to 6.30 | – |
| Brc1cnc(NCC(c2ccccc2)c2ccccc2)nc1Nc1cc(C2CC2)[nH]n1 [Example 329] | < 5.30 | < 5.30 | – |
| Cc1cc(Nc2cc(C3CC3)n[nH]2)nc(Nc2ccc(N(C)C)cc2)n1 [Example 213] | 5.30 to 6.30 | 5.30 to 6.30 | – |
